# Experimental data taken from patent publication US20170342503A1, “XRN2 AS A DETERMINANT OF SENSITIVITY TO DNA DAMAGE” (The Board of Regents of the University of Texas System, priority 2016, published 2017).
# Legend:
# [1] = system: advanced pancreatic cancer; conditions: people with advanced pancreatic cancer; cited from earlier work
# shXRN2 cells = experiment: Regression of 53BP1 foci/nucleus after IR exposure (DNA repair kinetics); assay type: cell-based; conditions: IR (1 Gy); treatment prior to IR; FIGS. 15B-C
# Source text: FIGS. 15A-C. R loop formation and transcription contribute to delayed DSB repair kinetics in XRN2-deficient cells. (FIG. 15A) Levels of R loops were monitored in mock- or IR (1 Gy)-exposed shXRN2 compared to shScr MDA-MB-231 breast cancer cells by IF. (FIGS. 15B-C) Regression of 53BP1 foci/nucleus was monitored in mock- or IR (1 Gy)-treated shXRN2 compared to shScr cells that were exposed to a-amanitin or GFP- or GFP-RNaseH transfection at the indicated times by IF. (*p<0.05).
# To visualize 53BP1, XRN2, and γ-H2AX, cells were plated, grown to ˜70% confluency on glass coverslips and either mock- or IR-treated. […] Visualization was performed using a 100× oil objective lens with fluorescence on a Nikon microscope. For each experiment 100 cells were counted.
# Since the loss of XRN2 sensitized cells to IR treatment (FIG. 12A), the inventors examined the effects of IR on R-loop formation in shXRN2 cells. Because R-loops can directly lead to DSBs, they examined whether active transcription or R-loop formation directly affected DNA repair (regression of 53BP1 foci) after IR treatment. shScr or shXRN2 cells were treated or not with a-amanitin or transfected with GFP- or GFP-RNaseH expression plasmids prior to IR exposure and 53BP1 foci/nuclei regression kinetics were assessed at various times after IR exposure.
# [2] = system: shXRN2 human fibroblast cells; experiment: Immunofluorescence of basal 53BP1 foci and R loops in shXRN2 versus shScr cells; assay type: cell-based
# Protocol: FIGS. 24A-C. DSBs formed in XRN2 deficient cells are dependent on active transcription and R-loop formation. (FIGS. 24A-B) Levels of 53BP1 were monitored in shXRN2 and compared to shScr human fibroblast cells after exposure to mock-, a-amanitin-, or GFP- or RNaseH-transfection treatments by IF. (FIG. 24C) Levels of R loops or 53BP1 were monitored in mock- or a-amanitin-treated shXRN2 cells by IF.
# To visualize 53BP1, XRN2, and γ-H2AX, cells were plated, grown to ˜70% confluency on glass coverslips and either mock- or IR-treated. Cells were then washed once with PBS, permeabilized and fixed in methanol/acetone (70/30, v/v). To visualize ATM pS 1981 and Mre11 cells were fixed in 3% paraformaldehyde/2% sucrose PBS solution for 10 min at room temperature (RT). Fixation was followed by permeabilization on ice with a 0.5% Triton X-100 buffer (0.5% Triton X-100, 20 mM HEPES, pH 7.4, 50 mM NaCl, 3 mM MgCl, and 300 mM sucrose). […] Visualization was performed using a 100× oil objective lens with fluorescence on a Nikon microscope. For each experiment 100 cells were counted.
# To determine how transcription and R-loop formation contributed to the DNA damage observed in shXRN2 cells, the inventors treated shScr and shXRN2 cells with a-amanitin or transfected each cell line with GFP control or GFP-RNaseH expression plasmids to remove R-loops and measured the number of 53BP1 foci.
# fibroblast cells = experiment: Immunofluorescence of XRN2 and R loop (S9.6) foci after UV treatment; assay type: cell-based, human; conditions: UV (20 J/m^2) + a-amanitin; FIG. 17D
# Source text: FIGS. 10A-D. XRN2 is a DNA damage response (DDR) factor. (FIG. 10A) To interrogate potential in vivo XRN2-interacting partners, exponentially growing HeLa cells were collected and lysed for FPLC analyses. Individual fractions were separated by SDS-PAGE and western blot techniques used to probe for indicated proteins. (FIG. 10B) Interactions between XRN2 and the DNA damage regulators Ku80, 53BP1, and BRCA1 were interrogated by immunoprecipitation (IP). (FIG. 10C) Sub-cellular XRN2 localization was quantitated in shScr and […] cells in mock-, IR (1 Gy), and UV (20 J/m^2) fibroblast cells. (FIG. 10D) Sub-cellular XRN2 localization and S9.6 foci was visualized in mock-, UV (20 J/m^2)-, or UV (20 J/m^2)+a amanitin (a-aman)-treated shScr and shXRN2 fibroblast cells by IF. (*p<0.05).
# FIGS. 17A-D. XRN2 undergoes transcription-dependent nuclear re-distribution in response to IR and UV. (FIGS. 17A-D) Sub-cellular localization of XRN2 was monitored in fibroblast cells either after (FIG. 17A) mock, (FIG. 17B) IR (1Gy), (FIG. 17C) UV (20 J/m^2), or (FIG. 17D) UV (20 J/m^2)+a-amanitin treated cells by IF.
# To visualize 53BP1, XRN2, and γ-H2AX, cells were plated, grown to ˜70% confluency on glass coverslips and either mock- or IR-treated. […] Visualization was performed using a 100× oil objective lens with fluorescence on a Nikon microscope. For each experiment 100 cells were counted. […]
# [3] = system: cells with transient siRNA-mediated loss of XRN2; experiment: Colony forming assay, PARP inhibition with transient siRNA-mediated loss of XRN2; assay type: cell-based; conditions: FIG. 8C, p<0.05
# Protocol: FIGS. 8A-C. XRN2 depletion sensitizes cells to genetic knockdown and chemical inhibition of PARP1. […] (FIG. 8B) Loss of XRN2 and PARP1 by transient siRNA knockdown together inhibits cellular growth and survival; black column—shSCR; white column—shXRN2.
# shScr and shXRN2 cells were plated onto 60 mm tissue culture plates and allowed to grow for two days. […] Colonies with >50 normal appearing cells were counted and percent survival calculated and graphed with dose.
# [4] = system: XRN2 deficient cells, fibroblast or MDA-MB-231 cells; experiment: Colony forming ability assay in shScr versus shXRN2 cells after genomic insult; assay type: cell-based, human; conditions: FIGS. 12E-F
# Source text: (FIGS. 12A-D) shScr versus shXRN2 cells (as indicated in the graph) or cells exposed to si-control (siSCR) versus XRN2 specific siRNA (siXRN2) were either mock-treated or exposed to: (FIGS. 12A-B) ionizing radiation (IR); (FIGS. 12C-D) ultraviolet light (UV). (FIGS. 12E-F) shScr and shXRN2, were either mock-treated or exposed to: (FIG. 12E) H2O2 or (FIG. 12F) Aphidicolin (APH). Cells were then monitored for survival using colony forming ability assays. Colonies of >50 normal-appearing cells were quantified for mock-versus agent-exposed cells. (**p<0.01).
# shScr and shXRN2 cells were plated onto 60 mm tissue culture plates and allowed to grow for two days. Cells were then exposed to IR and UV (at various doses as indicated), allowed to grow for 7 days, washed with PBS and stained with crystal violet solution. Colonies with >50 normal appearing cells were counted and percent survival calculated and graphed with dose.
compound,measurement,setting,value
Nc1ccn([C@@H]2O[C@H](CO)[C@@H](O)C2(F)F)c(=O)n1 [Gemcitabine],improvement in median survival duration,[1],5 week
a-amanitin,DNA repair kinetics (regression of 53BP1 foci) after IR exposure in shXRN2 cells,shXRN2 cells,completely restored DNA repair kinetics
same,R-loop levels in shXRN2 cells,"[2]; after a-amanitin treatment, FIG. 24C",decrease in R-loop levels
same,53BP1 foci in shXRN2 cells,"[2]; inhibition of transcription, to levels comparable to shScr cells, FIGS. 24A-B",decreased 53BP1 foci
same,XRN2 and R loop foci formation after UV treatment,fibroblast cells,failed to form
O=C1NCCc2c(OCCCCN3CCCCC3)cccc21 [DPQ],effect of PARP activity inhibition on survival in colony forming assays with loss of XRN2,[3],synthetic lethal
C[C@@]1(CO)[C@H](O)CC[C@@]2(C)[C@H]1CC[C@H]1C[C@@H]3C[C@@]12CC[C@]3(O)CO [aphidicolin],sensitivity of XRN2 deficient cells (colony forming ability after exposure),[4],hypersensitive
OO [hydrogen peroxide],sensitivity of XRN2 deficient cells (colony forming ability after exposure),[4],hypersensitive
